Measured values reported in patent US20230129364A1, “PYRROLIDINE DERIVATIVE, AND PHARMACEUTICAL COMPOSITION FOR PREVENTING OR TREATING BETA-AMYLOID OR TAU PROTEIN-ASSOCIATED DISEASES CONTAINING SAME” (YONSEI UNIVERSITY, UNIVERSITY - INDUSTRY FOUNDATION (UIF), priority 2019, published 2023).

What was measured:
pathological (P301S) tau = biological target: T1, pathological (P301S) tau (Homo sapiens, UniProt P10636, P618S); experiment: SPR binding affinity of tau PROTAC to P301S tau; details: CM5 sensor chip, concentration-dependent kinetic assay, read-out: binding affinity (Ka) to the P301S tau
T1 construct: made in house; host or cells: Star pLysS cells (E. coli), pRSET-B vector, IPTG induction
T1 sequence (P10636 1-441 isoform P10636-8 P301S): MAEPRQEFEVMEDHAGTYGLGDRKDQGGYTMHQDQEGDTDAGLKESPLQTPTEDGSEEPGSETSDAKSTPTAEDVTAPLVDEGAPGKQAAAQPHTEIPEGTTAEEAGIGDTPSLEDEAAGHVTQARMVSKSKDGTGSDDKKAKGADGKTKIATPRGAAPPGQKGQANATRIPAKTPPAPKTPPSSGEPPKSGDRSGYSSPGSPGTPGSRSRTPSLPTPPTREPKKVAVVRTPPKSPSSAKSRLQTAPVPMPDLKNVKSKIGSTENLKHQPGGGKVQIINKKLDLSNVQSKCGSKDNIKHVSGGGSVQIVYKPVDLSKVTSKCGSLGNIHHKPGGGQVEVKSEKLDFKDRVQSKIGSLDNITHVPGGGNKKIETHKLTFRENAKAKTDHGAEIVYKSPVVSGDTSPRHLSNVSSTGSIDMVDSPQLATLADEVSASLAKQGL
Method: (§1) The following experiment was performed to verify that the compound according to the present invention selectively degrades only phosphorylated tau. In order to biophysically analyze selective binding of the tau PROTAC to P301S, which is known as a representative mutant of pathological tau, non-pathological (WT) tau and pathological (P301S) tau were cloned into pRSET-B vectors to obtain plasmids. Star pLysS cells were used to overexpress proteins and 1 mM IPTG was added to the medium at an OD600 of 0.4 to 0.6. The intracellular proteins were extracted from the cells lysed in a lysis buffer through heat shock (95° C.), and WT tau and P301S tau were obtained at a high purity (>95%) using cation exchange chromatography and size exclusion chromatography.
(§2) Whether or not the obtained proteins bound to the tau PROTAC was determined through an SPR experiment. A CM5 sensor chip including dextran attached thereto was used, tau PROTAC was allowed to flow and the binding affinity between the protein and the compound was determined based on a response unit (RU). The binding affinity (Ka) to the protein was measured using concentration-dependent kinetic assay. The results of measurement of binding affinity between the tau PROTAC compound and non-pathological WT Tau or pathological P301S tau are shown in FIG. 2. […]

P-Tau (S396) = biological target: T2, P-Tau (S396) (Homo sapiens, UniProt P10636, P618L); experiment: Phosphorylated tau degradation in HEK293T P301L mutant cell line, Western blot, P-Tau S396; format: cell-based; details: 72 hours, HEK293T P301L cells, Western blot quantified with Image J
T2 construct: host or cells: HEK293T
T2 sequence (P10636 1-383 isoform P10636-6 P243L): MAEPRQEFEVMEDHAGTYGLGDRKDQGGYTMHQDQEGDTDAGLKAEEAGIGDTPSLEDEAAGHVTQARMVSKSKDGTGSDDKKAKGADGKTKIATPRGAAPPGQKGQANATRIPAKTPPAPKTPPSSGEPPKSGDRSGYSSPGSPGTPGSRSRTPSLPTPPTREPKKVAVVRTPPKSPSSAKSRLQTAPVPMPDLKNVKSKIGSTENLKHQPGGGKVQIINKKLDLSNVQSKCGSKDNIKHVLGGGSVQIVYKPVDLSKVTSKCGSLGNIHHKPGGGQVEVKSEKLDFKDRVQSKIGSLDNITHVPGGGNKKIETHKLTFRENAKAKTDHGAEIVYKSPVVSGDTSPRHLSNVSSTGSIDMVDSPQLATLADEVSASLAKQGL
Text: (§3) Specifically, the pRK5-EGFP-Tau P301L vector from Addgene (Addgene, MA, USA) was purchased and used in order to stably express P301L, which is a known representative mutation of pathological tau, in HEK293T cells. The P301L vector was inserted into HEK293T cells using a FuGENE HD transfection reagent (Promega, WI, USA) and then stabilized. The cells were removed therefrom and then only the cells into which the vector was inserted were isolated using a fluorescence-activated cell sorter (BD FACS Aria III, BD Bioscience, NJ, USA). After the isolated cells were incubated for 2 to 3 days, they were removed again and separated and cultured using a FACS twice to finally obtain a HEK293T P301 mutant cell line.
(§4) The obtained cells were seeded in each well of a 6-well plate and stabilized for 18 hours, and then each well was treated with the compound of Example 1 such that the final concentration reached 1 or 10 μM. The control group was treated with the same concentration (0.01%) of DMSO used as the solvent of the compound of Example. 72 hours later, the protein was extracted with a lysis buffer and quantified, and then Western blot was performed. A protein sample was electrophoresed on a 4-20% mini-PROTEIN TGX precast protein gel (Bio-Rad, CA, USA) and transferred to a PVDF membrane (Immobilon-P, Merck, Darmstadt, Germany). The primary antibodies used herein were P-Tau AT8 (#MN1020), P-Tau S396 (#44-752G), and P-Tau S356 (#44-751G) from ThermoFisher scientific (MA, USA), and GAPDH (SC-47724) from SANTA CRUZ Biotechnology (TX, USA). The secondary antibody used herein was rabbit/mouse IgG from GeneTex (CA, USA). The image obtained through ImageQuant LAS 4000 (GE healthcare, IL, USA) and the result of quantification using an Image J program are shown in FIG. 1.

[1] = biological target: T3, non-pathological (WT) tau (Homo sapiens, UniProt P10636); experiment: SPR binding affinity of tau PROTAC to WT tau; details: CM5 sensor chip, concentration-dependent kinetic assay, nonpathological WT tau, read-out: binding affinity (Ka) to tau
T3 construct: made in house; host or cells: Star pLysS cells (E. coli), pRSET-B vector, IPTG induction
T3 sequence (P10636 1-441 isoform P10636-8): as the sequence (P10636 1-441 isoform P10636-8 P301S) above, with S301P counted along it
Method: as §1, §2

P-Tau (S356) = biological target: T4, P-Tau (S356) (Homo sapiens, UniProt P10636, P618L); experiment: Phosphorylated tau degradation in HEK293T P301L mutant cell line, Western blot, P-Tau S356; format: cell-based; details: 10 μM, 72 hours, HEK293T P301L cells, Western blot quantified with Image J
T4 construct: host or cells: HEK293T
T4 sequence (P10636 1-383 isoform P10636-6 P243L): as the sequence (P10636 1-383 isoform P10636-6 P243L) above
Text: as §3, §4

P-Tau AT8 (S202, T205) = biological target: T5, P-Tau AT8 (S202, T205) (Homo sapiens, UniProt P10636, P618L); experiment: Phosphorylated tau degradation in HEK293T P301L mutant cell line, Western blot, P-Tau AT8; format: cell-based; details: 10 μM, 72 hours, HEK293T P301L cells, Western blot quantified with Image J
T5 construct: host or cells: HEK293T
T5 sequence (P10636 1-383 isoform P10636-6 P243L): as above
Text: as §3, §4

[2] = biological target: T6, aggregated tau protein (wild-type K18) (Homo sapiens, UniProt P10636); experiment: Tau protein aggregate degradation test (thioflavin T assay); format: biochemical; details: pre-aggregated tau, further 5 days at 37° C., ThT fluorescence vs control = 100%
T6 construct: Tau protein (wild-type K18)
T6 sequence (P10636 561-685 limits assumed): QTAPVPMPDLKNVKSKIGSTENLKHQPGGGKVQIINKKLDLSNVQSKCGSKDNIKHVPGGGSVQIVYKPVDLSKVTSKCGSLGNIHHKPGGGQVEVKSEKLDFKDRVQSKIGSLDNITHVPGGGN
Method: Tau protein (wild-type K18) was dissolved in phosphate-buffered saline (PBS, pH 7.4) at a concentration of 1 mg/mL to prepare a tau protein solution. 0.1 mg/mL of heparin and 100 μM dithiothreitol (DTT) were added to 1 mg/mL of the tau protein solution, followed by incubation at 37° C. for 5 days to induce tau protein aggregation. The aggregated tau protein was mixed with each test compound in an amount of 50 or 500 μM such that the final concentration reached 0.5 mg/mL, followed by further incubation at 37° C. for 5 days to induce reaction.
The degradation effect of each compound on the tau aggregates was measured by thioflavin T (ThT) assay (see Example 2). More specifically, 25 μL of the reaction solution was charged in each well of a 96-well plate for fluorescence analysis and 75 μL of the prepared thioflavin-T solution was charged in each well. The reaction was allowed to proceed at room temperature in a dark laboratory for 5 minutes and then fluorescence values were measured at an excitation wavelength of 450 nm and an emission wavelength of 485 nm using a multi-mode microplate reader.
The ratio of the fluorescence value measured in the group obtained by treating with each test compound to 100% of the fluorescence value of the group (control group) obtained by treating only with tau proteins and inducing aggregation for 5 days is set forth in Table 6 below: […]

[3] = biological target: T7, Tau protein (wild-type K18) (Homo sapiens, UniProt P10636); experiment: Tau protein aggregation inhibition test (thioflavin T assay); format: biochemical; details: heparin/DTT-induced aggregation, 37° C. 5 days, ThT fluorescence vs tau-only control = 100%
T7 construct: Tau protein (wild-type K18)
T7 sequence (P10636 561-685 limits assumed): as above
How it was run: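 K18 tau (1 mg/mL in PBS pH 7.4) was pre-aggregated with 0.1 mg/mL heparin plus 100 μM DTT at 37 °C for 5 days, then mixed with compound (50, 500 μM) to 0.5 mg/mL protein and incubated further. ThT fluorescence (ex 450/em 485 nm) was read after 5 min at room temperature in the dark, as % of the aggregated tau-only control.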

[4] = biological target: T8, aggregated beta-amyloid; human Aβ 1-42 (UniProtKB-P05067, a.a. 672-713) (Homo sapiens, UniProt P05067); experiment: Beta-amyloid aggregate degradation test (thioflavin T assay); format: biochemical; details: pre-aggregated Aβ, further 3 days at 37° C., ThT fluorescence vs control = 100%
T8 construct: UniProtKB-P05067, a.a; 672-713
T8 sequence (P05067 672-713): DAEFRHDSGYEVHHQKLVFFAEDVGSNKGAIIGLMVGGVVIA
Method: Aβ (beta-amyloid; human A3 1-42 monomer (UniProtKB-P05067, a.a. 672-713)) was dissolved at a concentration of 10 mM in dimethyl sulfoxide (DMSO), and the resulting solution was diluted to 250 μM using distilled water, and then incubated at 37° C. for 3 days to induce aggregation. The aggregated beta-amyloid was added with each test compound in an amount of 50 or 500 μM such that the final concentration reached 25 μM, and was further cultured at 37° C. for 3 days to induce reaction. The aggregate degradation effect of each test compound was measured by thioflavin T (ThT) assay (see Example 2). Specifically, 25 μL of the reaction solution was charged in each well of a 96-well plate for fluorescence analysis and 75 μL of the prepared thioflavin-T solution was charged in each well. The reaction was allowed to proceed at room temperature in a dark laboratory for 5 minutes and then fluorescence values were measured at an excitation wavelength of 450 nm and an emission wavelength of 485 nm using a multi-mode microplate reader. The ratio of the fluorescence value measured in the group obtained by treating with each test compound to 100% of the fluorescence value of the group (control group) obtained by treating only with beta-amyloids and inducing aggregation for 3 days is set forth in Table 4 below: […]

Compound | Kd (pathological (P301S) tau) [µM] | degradation activity, P-Tau (S396) (P-Tau (S396); 1 μM) [%] | degradation activity, P-Tau (S396) (P-Tau (S396); 10 μM) [%] | Kd [1] [µM] | phosphorylated tau degradation activity, P-Tau (S356) (P-Tau (S356)) [%] | degradation activity compared to the control group, P-Tau AT8 (S202, T205) (P-Tau AT8 (S202, T205)) [%] | ThT fluorescence remaining (% of control) ([2]; 50 uM test compound) | ThT fluorescence remaining (% of control) ([2]; 500 uM test compound) | Tau aggregation remaining (ThT fluorescence, % of tau-only control) ([3]; 50 uM test compound) | Tau aggregation remaining (ThT fluorescence, % of tau-only control) ([3]; 500 uM test compound) | Beta-amyloid aggregate degradation activity (% of control) ([4]; 50 uM test compound) | Beta-amyloid aggregate degradation activity (% of control) ([4]; 500 uM test compound)
CCN1C(=O)/C(=C/c2cn(Cc3cn(CCOCCOCCOCC(=O)Nc4cccc5c4C(=O)N(C4CCC(=O)NC4=O)C5=O)nn3)c3cccnc23)NC1=S (centres unmarked) [TAU-1 PROTAC, (Z)—N-(2-(2,6-dioxopiperidin-3-yl)-1,3-dioxoisoindolin-4-yl)-2-(2-(2-(2-(4-((3-((1-ethyl-5-oxo-2-thioxoimidazolidin-4-ylidene)methyl)-1H-pyrrolo[3,2-b]pyridin-1-yl)methyl)-1H-1,2,3-triazol-1-yl)ethoxy)ethoxy)ethoxy)acetamide] | 42 | 67 | 67 | 190 | 81 | 26 |  |  |  |  |  | 
O=C1NC(=S)S/C1=C\c1cc[nH]c1 [DN204297, (Z)-5-((1H-pyrrol-3-yl)methylene)-2-thioxothiazolidin-4-one] |  |  |  |  |  |  | 52.16 % of control | 17.97 % of control | 48.721 % of control | 16.233 % of control | 86.80 % of control | 28.19 % of control
O=C1NC(=S)S/C1=C\c1csc2ccccc12 [DN204818, (Z)-5-(benzo[b]thiophen-3-ylmethylene)-2-thioxothiazolidin-4-one] |  |  |  |  |  |  | 14.94 % of control | 5.16 % of control | 20.35 % of control | 1.71 % of control | 95.08 % of control | 35.83 % of control
CCN1C(=O)/C(=C/c2c[nH]c3ccccc23)NC1=S [DN204811, (Z)-5-((1H-indol-3-yl)methylene)-3-ethyl-2-thioxoimidazolidin-4-one] |  |  |  |  |  |  | 50.44 % of control | 31.04 % of control | 43.22 % of control | 40.21 % of control | 74.64 % of control | 28.97 % of control
O=C1NC(=S)S/C1=C\c1c[nH]c2cccnc12 [DN204808, (Z)-5-((1H-pyrrolo[3,2-b]pyridin-3-yl)methylene)-2-thioxothiazolidin-4-one] |  |  |  |  |  |  | 62.2 % of control | 41.11 % of control | 27.48 % of control | 16.09 % of control |  | 73.30 % of control
O=C1NC(=S)SC1Cc1cc[nH]c1 (centres unmarked) [DN204303, 5-((1H-pyrrol-3-yl)methyl)-2-thioxothiazolidin-4-one] |  |  |  |  |  |  | 81.77 % of control | 39.19 % of control | 82.4 % of control | 29.14 % of control | 90.66 % of control | 33.65 % of control
O=C1NC(=S)S/C1=C\c1ccc2occc2c1 [DN204809, (Z)-5-(benzofuran-5-ylmethylene)-2-thioxothiazolidin-4-one] |  |  |  |  |  |  | 51.93 % of control | 30.87 % of control | 36.72 % of control | 32.09 % of control | 95.14 % of control | 25.32 % of control
